Test results published in patent publication US12129246B1, “Hydroquinazoline derivatives for the treatment of a disease or disorder” (Novartis AG, priority 2023, dated 2024).
Where two headings read alike, the source gives them in different places.

Assays:
human NPR1 = target: T1, human NPR1 (Homo sapiens, UniProt P16066); assay: Cellular cGMP production assay, human NPR1 expressing CHO-K1 cells (CisBio HTRF); format: cell-based; settings: for AC50: cGMP production, 30 min at 37° C., 12-point dose-response from 30 μM; for Human NPR1 Amax (% of ANP): maximum cGMP production as percentage of the maximum cGMP produced with ANP
T1 construct: host or cells: CHO-K1
T1 sequence (P16066 33-1061): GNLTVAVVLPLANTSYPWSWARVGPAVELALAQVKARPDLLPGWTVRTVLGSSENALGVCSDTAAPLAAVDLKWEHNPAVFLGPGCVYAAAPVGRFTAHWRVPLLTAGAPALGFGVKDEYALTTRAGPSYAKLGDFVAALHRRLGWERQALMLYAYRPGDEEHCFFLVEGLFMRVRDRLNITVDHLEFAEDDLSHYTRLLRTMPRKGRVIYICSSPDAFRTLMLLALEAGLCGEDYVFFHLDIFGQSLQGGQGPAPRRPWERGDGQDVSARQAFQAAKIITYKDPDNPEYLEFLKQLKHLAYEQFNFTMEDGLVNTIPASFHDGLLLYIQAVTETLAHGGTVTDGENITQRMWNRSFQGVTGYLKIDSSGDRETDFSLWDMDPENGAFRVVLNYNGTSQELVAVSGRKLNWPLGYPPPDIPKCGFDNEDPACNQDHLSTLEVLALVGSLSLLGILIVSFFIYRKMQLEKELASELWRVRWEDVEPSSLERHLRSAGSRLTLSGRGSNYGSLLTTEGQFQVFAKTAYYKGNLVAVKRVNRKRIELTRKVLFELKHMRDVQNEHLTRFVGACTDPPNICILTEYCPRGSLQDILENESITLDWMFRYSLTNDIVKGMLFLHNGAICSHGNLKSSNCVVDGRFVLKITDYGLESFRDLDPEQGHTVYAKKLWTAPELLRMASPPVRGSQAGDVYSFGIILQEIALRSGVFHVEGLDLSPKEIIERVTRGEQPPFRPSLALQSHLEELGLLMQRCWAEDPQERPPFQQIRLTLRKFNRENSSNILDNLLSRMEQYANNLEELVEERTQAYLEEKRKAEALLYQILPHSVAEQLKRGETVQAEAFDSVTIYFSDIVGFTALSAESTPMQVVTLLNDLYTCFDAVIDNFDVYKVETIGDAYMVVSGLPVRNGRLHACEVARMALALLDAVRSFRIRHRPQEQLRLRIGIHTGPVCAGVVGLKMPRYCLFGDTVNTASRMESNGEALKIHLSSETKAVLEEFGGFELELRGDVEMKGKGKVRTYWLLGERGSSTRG
Summary of the method: (§1)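 Read-out was HTRF (excitation 317 nm, emission 665 nm), with cGMP quantified as Delta F against a calibrator standard curve. Beforehand, cells were exposed for 30 min at 37 °C to compound (30 μM top, twelve 3-fold steps) in IBMX-containing PBS/BSA buffer, then lysed.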

monkey NPR1 = monkey NPR1 (Macaca fascicularis, UniProt A0A7N9DBT9); assay: Cellular cGMP production assay, monkey NPR1 expressing CHO-K1 cells (CisBio HTRF); format: cell-based; settings: for Monkey NPR1 Amax (% of ANP): maximum cGMP production as percentage of the maximum cGMP produced with ANP
Sequence of monkey NPR1 (A0A7N9DBT9 entry or part of it): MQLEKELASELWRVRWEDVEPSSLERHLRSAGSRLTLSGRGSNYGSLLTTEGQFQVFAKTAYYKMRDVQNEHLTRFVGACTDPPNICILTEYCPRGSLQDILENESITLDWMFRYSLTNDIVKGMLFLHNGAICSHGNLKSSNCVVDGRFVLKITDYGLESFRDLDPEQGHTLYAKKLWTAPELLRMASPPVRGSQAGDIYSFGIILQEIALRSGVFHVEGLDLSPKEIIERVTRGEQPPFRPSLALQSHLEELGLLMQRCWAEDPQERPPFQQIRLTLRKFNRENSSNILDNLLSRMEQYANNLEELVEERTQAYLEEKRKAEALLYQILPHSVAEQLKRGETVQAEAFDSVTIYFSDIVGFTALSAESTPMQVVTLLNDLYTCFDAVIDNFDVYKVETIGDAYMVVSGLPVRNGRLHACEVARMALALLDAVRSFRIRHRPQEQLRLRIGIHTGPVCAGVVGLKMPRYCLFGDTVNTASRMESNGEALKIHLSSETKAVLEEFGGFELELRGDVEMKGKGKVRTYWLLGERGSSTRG
Summary of the method: as §1

[1] = cGMP production, monkey NPR1 CHO-K1 cells, 30 min at 37° C., 12-point dose-response from 30 μM, read-out: Monkey NPR1 AC50

Row | SMILES | AC50 (human NPR1) | Human NPR1 Amax (% of ANP) (human NPR1) | AC50 (monkey NPR1) | Monkey NPR1 Amax (% of ANP) (monkey NPR1; monkey NPR1 CHO-K1 cells) | AC50 (monkey NPR1; [1])
1 | CC[C@H]([C@H]1CC[C@H](C(=O)O)CC1)N(C)c1nc2c(c(N[C@@H](CN3CCC[C@H](C)C3)c3cnn(C)c3)n1)C[C@H](c1cccc(F)c1)CC2 [Compound 23, (1R,4r)-4-((R)-1-(((R)-6-(3-fluorophenyl)-4-(((R)-1-(1-methyl-1H-pyrazol-4-yl)-2-((S)-3-methylpiperidin-1-yl)ethyl)amino)-5,6,7,8-tetrahydroquinazolin-2-yl)(methyl)amino)propyl)cyclohexane-1-carboxylic acid] | 115 nM | 120.018 % of ANP | 72 nM | 132.182 % of ANP | –
2 | CC[C@H]([C@H]1CC[C@H](C(=O)O)CC1)N(C)c1nc2c(c(N[C@@H](CN3C4CCCC3CC4)c3cc(C)n(C)n3)n1)C[C@H](c1cccc(F)c1)CC2 [Compound 88, (1R,4r)-4-((1R)-1-(((6R)-4-(((1S)-2-(8-azabicyclo[3.2.1]octan-8-yl)-1-(1,5-dimethyl-1H-pyrazol-3-yl)ethyl)amino)-6-(3-fluorophenyl)-5,6,7,8-tetrahydroquinazolin-2-yl)(methyl)amino)propyl)cyclohexane-1-carboxylic acid] | 303 nM | 98.817 % of ANP | 255 nM | 94.699 % of ANP | –
3 | CC[C@@H](Nc1nc2c(c(N[C@@H](CN3CCCCC3)c3cnn(C)c3)n1)C[C@H](c1ccccc1)CC2)[C@H]1CC[C@H](C(=O)O)CC1 [Compound 56, (1R,4r)-4-((R)-1-(((R)-4-(((R)-1-(1-methyl-1H-pyrazol-4-yl)-2-(piperidin-1-yl)ethyl)amino)-6-phenyl-5,6,7,8-tetrahydroquinazolin-2-yl)amino)propyl)cyclohexane-1-carboxylic acid] | 198 nM | 102.955 % of ANP | – | 108.953 % of ANP | 196 nM
4 | CC[C@@H](Nc1nc2c(c(N[C@@H](CN3CC4CCC3C4)c3ccc(F)cc3)n1)C[C@H](c1ccccc1)CC2)[C@H]1CC[C@H](C(=O)O)CC1 (stereo partly drawn) [Compound 86, (1R,4r)-4-((1R)-1-(((6R)-4-(((1R)-2-(2-azabicyclo[2.2.1]heptan-2-yl)-1-(4-fluorophenyl)ethyl)amino)-6-phenyl-5,6,7,8-tetrahydroquinazolin-2-yl)amino)propyl)cyclohexane-1-carboxylic acid] | 286 nM | 101.050 % of ANP | – | 92.318 % of ANP | 192 nM
5 | CC[C@H]([C@H]1CC[C@H](C(=O)O)CC1)N(C)c1nc2c(c(N[C@@H](CN3CCCCC3)c3cnn(C4CC4)c3)n1)C[C@H](c1ccccc1)CC2 [Compound 97, (1R,4r)-4-((R)-1-(((R)-4-(((R)-1-(1-cyclopropyl-1H-pyrazol-4-yl)-2-(piperidin-1-yl)ethyl)amino)-6-phenyl-5,6,7,8-tetrahydroquinazolin-2-yl)(methyl)amino)propyl)cyclohexane-1-carboxylic acid] | 338 nM | 107.286 % of ANP | – | 96.148 % of ANP | 192 nM
6 | CC[C@H]([C@H]1CC[C@H](C(=O)O)CC1)N(C)c1nc2c(c(N[C@@H](CN3C4CCCC3CCC4)c3cnn(CC)c3)n1)C[C@H](c1cccc(F)c1)CC2 [Compound 18, (1R,4r)-4-((R)-1-(((R)-4-(((R)-2-((1S,5S)-9-azabicyclo[3.3.1]nonan-9-yl)-1-(1-ethyl-1H-pyrazol-4-yl)ethyl)amino)-6-(3-fluorophenyl)-5,6,7,8-tetrahydroquinazolin-2-yl)(methyl)amino)propyl)cyclohexane-1-carboxylic acid] | 107 nM | 97.609 % of ANP | 71 nM | 100.607 % of ANP | –
7 | CC[C@H]([C@H]1CC[C@H](C(=O)O)CC1)N(C)c1nc2c(c(N[C@@H](CN3CCCCC3)c3cnn(CC(F)(F)F)c3)n1)C[C@H](c1ccccc1)CC2 [Compound 167, (1R,4r)-4-((R)-1-(methyl((R)-6-phenyl-4-(((R)-2-(piperidin-1-yl)-1-(1-(2,2,2-trifluoroethyl)-1H-pyrazol-4-yl)ethyl)amino)-5,6,7,8-tetrahydroquinazolin-2-yl)amino)propyl)cyclohexane-1-carboxylic acid] | 2090 nM | 112.087 % of ANP | – | 98.847 % of ANP | 1430 nM
8 | CC[C@@H](Nc1nc2c(c(N[C@@H](CN3C4CCCC3CC4)c3scnc3C)n1)C[C@H](c1cccc(F)c1)CC2)[C@H]1CC[C@H](C(=O)O)CC1 [Compound 26, (1R,4r)-4-((1R)-1-(((6R)-4-(((1S)-2-(8-azabicyclo[3.2.1]octan-8-yl)-1-(4-methylthiazol-5-yl)ethyl)amino)-6-(3-fluorophenyl)-5,6,7,8-tetrahydroquinazolin-2-yl)amino)propyl)cyclohexane-1-carboxylic acid] | 131 nM | 115.149 % of ANP | 91 nM | 102.667 % of ANP | –
9 | CC[C@@H](Nc1nc2c(c(N[C@@H](CN3CCCCCC3)c3cnn(C)c3)n1)C[C@H](c1ccccc1)CC2)[C@H]1CC[C@H](C(=O)O)CC1 [Compound 51, (1R,4r)-4-((R)-1-(((R)-4-(((R)-2-(azepan-1-yl)-1-(1-methyl-1H-pyrazol-4-yl)ethyl)amino)-6-phenyl-5,6,7,8-tetrahydroquinazolin-2-yl)amino)propyl)cyclohexane-1-carboxylic acid] | 187 nM | 106.105 % of ANP | – | 104.734 % of ANP | 110 nM
10 | CC[C@@H](Nc1nc2c(c(N[C@@H](CNC3CCOCC3)c3ccccc3)n1)C[C@H](c1ccccc1)CC2)[C@H]1CC[C@H](C(=O)O)CC1 [Compound 166, (1R,4r)-4-((R)-1-(((R)-6-phenyl-4-(((R)-1-phenyl-2-((tetrahydro-2H-pyran-4-yl)amino)ethyl)amino)-5,6,7,8-tetrahydroquinazolin-2-yl)amino)propyl)cyclohexane-1-carboxylic acid] | 2000 nM | 101.913 % of ANP | – | 96.913 % of ANP | 1980 nM
11 | CC[C@@H](Nc1nc2c(c(N[C@@H](CN3CCCCC3)c3ccccc3)n1)C[C@@H](c1cccc(F)c1)CC2)[C@H]1CC[C@H](C(=O)O)CC1 [Compound 37, (1R,4r)-4-((R)-1-(((S)-6-(3-fluorophenyl)-4-(((R)-1-phenyl-2-(piperidin-1-yl)ethyl)amino)-5,6,7,8-tetrahydroquinazolin-2-yl)amino)propyl)cyclohexane-1-carboxylic acid] | 150 nM | 105.989 % of ANP | – | 107.224 % of ANP | 158 nM
12 | CC[C@H]([C@H]1CC[C@H](C(=O)O)CC1)N(C)c1nc2c(c(N[C@@H](CN3CCCC(F)(F)CC3)c3cnn(C)c3)n1)C[C@H](c1ccccc1)CC2 [Compound 150, (1R,4r)-4-((R)-1-(((R)-4-(((R)-2-(4,4-difluoroazepan-1-yl)-1-(1-methyl-1H-pyrazol-4-yl)ethyl)amino)-6-phenyl-5,6,7,8-tetrahydroquinazolin-2-yl)(methyl)amino)propyl)cyclohexane-1-carboxylic acid] | 1160 nM | 130.487 % of ANP | – | 156.200 % of ANP | 1040 nM
13 | CC[C@@H](N(C)c1nc2c(c(N[C@@H](CN3C4CCCC3CC4)c3cnn(CC)c3)n1)C[C@H](c1cccc(F)c1)CC2)C12CC(C(=O)O)(C1)C2 [Compound 42, 3-((1R)-1-(((6R)-4-(((1R)-2-(8-azabicyclo[3.2.1]octan-8-yl)-1-(1-ethyl-1H-pyrazol-4-yl)ethyl)amino)-6-(3-fluorophenyl)-5,6,7,8-tetrahydroquinazolin-2-yl)(methyl)amino)propyl)bicyclo[1.1.1]pentane-1-carboxylic acid] | 169 nM | 92.080 % of ANP | 146 nM | 101.138 % of ANP | –
